According to patent US20100210568A1, “T[…] HORMONE FOR […] APPLICATIONS” (priority 2007, published 2010):

Tested on: drug-resistant Mycobacterium tuberculosis
Conditions: peptide 10 micrograms per ml, seven days

With `NC(=O)[C@@H]1CCCN1C(=O)[C@H](Cc1cnc[nH]1)NC(=O)[C@@H]1CCC(=O)N1` [TRH, Pyr-His-Pro-NH2] as the compound, how does the “% inhibition” value read?
Its value is 0.0%.
